Legend:
[1] = tested on: human GB cells (PD-GB4, U251, PD-GB 1, PD-GB3); experiment: 3D spheroid invasion in Matrigel, human GB cells co-cultured with human microglia; type: cell-based
Procedure: Tumor spheroids. Tumor spheroids were prepared from mCherry/iRFP/GFP-labeled patient-derived, human U251 or murine GB cells (GL261, iAGR53, PNp53, EGFRviii-shP16), either alone or co-cultured with unlabeled primary human/murine microglia (4:1 ratio), using our modified hanging-drop method, as we previously described. For assessment of cell invasion, GB spheroids (4,000 cells/sphere) were embedded in Matrigel (Corning), seeded in a 96-well plate, and incubated with complete DMEM or complete DMEM supplemented with SELPi (0.5 µM). […] For FACS analysis, GB spheroids (8,000 cells/sphere) were embedded in Matrigel, seeded in a 12-well plate, and treated with complete DMEM, 0% serum microglia medium or microglia CM for 24-48 h. Cells were then recovered using Cell Recovery Solution (Corning) and further analyzed by FACS.

[2] = Blood chemistry and blood count after systemic SELPi; type: in vivo, c57/BL mice; conditions: single IV dose 16 mg/kg, healthy mice, 24 h
Procedure: To test the effect of SELPi treatment in vivo on mice blood chemistry and blood count, c57/BL mice were injected with 16 mg/kg SELPi IV. Twenty-four hours following injecting, mice were euthanized and blood was collected. Blood samples were analyzed by AML Ltd (Herzliya, Israel). For all models, 50 × 10^3 GB cells were stereotactically injected in 5 µl at 1 µl/min flow rate. Injection coordination relative to the mouse Bregma point were: 2 mm lateral (left), 0.5 mm anterior, 3.5 mm ventral.

L-Selectin = biological target: T1, L-Selectin (Homo sapiens, UniProt P14151); conditions: cited from earlier work
T1 sequence (P14151 39-372): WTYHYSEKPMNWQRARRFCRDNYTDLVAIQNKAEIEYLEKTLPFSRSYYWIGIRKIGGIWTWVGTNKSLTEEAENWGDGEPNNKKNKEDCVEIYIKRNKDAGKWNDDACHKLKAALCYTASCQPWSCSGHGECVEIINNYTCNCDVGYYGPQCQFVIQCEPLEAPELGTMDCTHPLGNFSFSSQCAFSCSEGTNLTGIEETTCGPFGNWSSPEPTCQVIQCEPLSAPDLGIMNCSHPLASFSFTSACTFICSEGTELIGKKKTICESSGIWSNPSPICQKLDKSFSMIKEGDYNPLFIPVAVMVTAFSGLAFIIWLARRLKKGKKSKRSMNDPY

[3] = tested on: bone marrow derived macrophages (BMDM); experiment: Flow cytometry of PSGL-1, CD206, CD38 on bone marrow derived macrophages; type: cell-based, murine
Procedure: Primary murine bone marrow-derived macrophages (BMDM) isolation. Bone marrow cells were freshly isolated from the tibias and the femurs of 8-12 weeks old C57BL/6 mice (Envigo CRS, Israel). Bone marrow cells were extracted using 25-gauge syringe and passed through a 70 µm nylon strainer (Corning, Israel). For macrophages differentiation cells were incubated with 50 ng/ml recombinant murine GM-CSF for one week. The medium was replaced 4 days post cells isolation. Cells were tested for CD11b and F4/80 expression using flow cytometry.
Flow cytometry. For flow cytometry assays, cells were harvested using a cell scraper, and were then washed with PBS followed by additional washes with PBS supplemented with 1% BSA and 5 mM EDTA (FACS buffer). Tumor spheroids were recovered from Matrigel using Cell Recovery Solution (Corning) and washed with FACS buffer. To validate the purity of the microglia preparations, CD11b isolated cells or human microglia were incubated with TMEM119 and P2Y12-labeled antibodies for 1 h. For human TMEM119, primary antibody was unlabeled and cells were washed and incubated with secondary, Alexa 488 conjugated antibody. To assess P-Selectin and PSGL-1 expression, GB cells and microglia were seeded alone, co-cultured in a 2D petri dish, or grown as spheroids seeded in Matrigel. Cells were treated with control medium or CM for 48 h. They were then incubated with mouse anti-human P-Selectin antibody for 1 h on ice, and then were washed, and incubated with Alexa-488 labeled anti-mouse IgG binding protein for 1 h on ice. Alternatively, cells were incubated with rat anti-human PSGL antibody, and then were washed, and incubated with goat anti-rat, Alexa-488 labeled antibody for 1 h on ice. […] Fluorescence intensity was assessed using either an Attune flow cytometer (Life Technologies) or a Gallios™ flow cytometer (Beckman Coulter, USA) and the results were analyzed by Kaluza software (Beckman Coulter, USA).

[4] = rSELP, or SELPi added to rSELP containing medium

Question: Which 3D spheroid invasion ([1]; PD-GB4 GB cells with human microglia, 0.5 µM SELPi or SELP knockdown, 72 h) does the source give for `COc1ccc(C2CC(c3c(O)cc(C)oc3=O)=NCCS2)c(OC)c1` (centres unmarked) [SELPi, 3-[7-(2,4-Dimethoxyphenyl)-2,3,6,7-tetrahydro-1,4-thiazepin-5-yl]-4-hydroxy-6-methyl-2H-pyran-2-one] here?
Answer: Its 3D spheroid invasion is “reduced invasion”.

Question: What about the “3D spheroid invasion, further human GB models” value ([1]; human U251, PD-GB 1, PD-GB3) of the same compound?
Answer: The value was “effect of SELPi on GB spheroids was observed”.

Question: And the “complete blood count: blood lymphocytes” value [2]?
Answer: The value was “increase in the absolute amount of blood lymphocytes”.

Question: And the blood chemistry ([2]; vs saline, vehicle)?
Answer: Its blood chemistry is “no significant changes”.

Question: What about the “inhibiting effect on L-Selectin” value (L-Selectin) of the same compound?
Answer: Its value is “no inhibiting effects”.

Question: What about the PSGL-1 expression ([3]; rSELP and GB CM, or SELPi added to GB CM) of the same compound?
Answer: The PSGL-1 expression was “reduced”.

Question: What about the CD38 expression [3, 4] of the same compound?
Answer: Its CD38 expression is “elevated”.

Question: What about the CD206 expression [3, 4] of the same compound?
Answer: The CD206 expression was “reduced”.
